Earlier results as cited in patent US8229872B2, “Modeling and control for highly variable and nonlinear systems” (priority 2007, dated 2012).

Test system: receptors of the neuromuscular junction
Details: isolated cat anterior tibialis and sartorius muscles; ref [18]

COc1cc2c3cc1Oc1cc(ccc1O)C[C@@H]1c4c(cc(OC)c(O)c4Oc4ccc(cc4)C[C@@H]3N(C)CC2)CC[N+]1(C)C [tubocurarine]
receptors that had to be blocked by the antagonist before block was noticeable: 76±5%
receptors that had to be blocked for near complete blockade: 92±16%
